SMILES strings stand for the structures.

The text below walks through data of patent US20160310571A1, “Pharmaceutical Composition Comprising Erythropoietin and Ceftriaxone and A Method for Treating Parkinson's Disease Dementia” (Chung Shan Medical University, priority 2015, published 2016).

Type in all cases: in vivo, rat
In test [1] the test system is PDD rats. In words: Object recognition test in MPTP-induced PDD rats. As to conditions: 13th day. The protocol: (§1) Wistar male rats (12 week-old, weight ˜400 grams) purchased from the National Laboratory Animal Center (R.O.C.) are used. The rats are housed in an animal room with constant temperature of 24±1° C., where is kept on a 12-hours light and 12-hours dark cycle. The rats are housed and kept on free diet and water.
(§2) On the 1st day, the rats are anesthetized, followed by bilaterally MPTP (1-methyl-4-phenyl-1,2,3,6-tetrahydropyridine hydrochloride)-infusion into the substantia nigra pars compacta (SNc). The rats with cognitive impairments on working memory and object recognition are used as the PDD rats (Ho et al., Behav Brain Res 268: 177-184, 2014).
Starting on the 1st day, referring to TABLE 1, saline (group Al), erythropoietin (groups A2 & A3) and ceftriaxone (groups A4 & A5) are administrated to the PDD rats in the corresponding groups. […]
Recognition ability of the rats of groups A0-A6 is measured using the object recognition test (Ho et al., Behav Brain Res 268: 177-184, 2014). […]
On the 13th day, the rat under test “M” is first placed in the open box shown as FIG. 4a, and the time spent exploring the object O1 (TO1) and the total time spent exploring the objects O1, O2 & O3 (TO1+O2+O3) are recorded, respectively. The percentage of the exploration time spent on the object O1 is calculated as (TO1/TO1+O2+O3)*100%. […]

The subject of test [2] is pyramidal neuron in the hippocampal CA1 area. Nature of the test: Histopathological analysis: Nissl staining of hippocampal CA1 sections. The conditions noted are these: 14th day, vs group A1 (saline), p<0.001. As to the method:
as §1, §2
(§3) Starting on the 1st day, referring to TABLE 1, saline (group Al), erythropoietin (groups A2 & A3) and ceftriaxone (groups A4 & A5) are administrated to the PDD rats in the corresponding groups. Erythropoietin and ceftriaxone are sequentially administrated to the PDD rats of group A6 with a time interval of 30 minutes. Saline is also used to be administrated to the normal rats of group A0. Moreover, saline, erythropoietin and ceftriaxone are administrated for 14 days (from the 1st day to the 14th day).
(§4) On the 14th day, the rats of groups A0-A6 are sacrificed and the coronal sections are collected. The sections with SNc are used for tyrosine hydroxylase staining, while the sections with hippocampal CA1 area are used for Nissl staining. […]

Test [3] concerns DAergic neuron in the SNc. Nature of the test: Histopathological analysis: tyrosine hydroxylase staining of SNc sections. As to conditions: 14th day, vs group A1 (saline). As to the method: as §1, §2, §3, §4
Test [4] deals with PDD rats. In words: T-maze test (working memory) in MPTP-induced PDD rats. The conditions noted are these: test on 10th day, vs chance (50%). The protocol: as §1, §2
Starting on the 1st day, referring to TABLE 1, saline (group Al), erythropoietin (groups A2 & A3) and ceftriaxone (groups A4 & A5) are administrated to the PDD rats in the corresponding groups. Erythropoietin and ceftriaxone are sequentially administrated to the PDD rats of group A6 with a time interval of 30 minutes. […]
Working memory of the rats of groups A0-A6 is assessed using the T-maze test (Ho et al., Behav Brain Res 268: 177-184, 2014). […]
On the 10th day, a test session consisting 3 rounds, each of which is composed of a “forced run” and two “choice run”, is carried out. The number of the rewards “R” that the rat under test “M” get (% of correct response) in the 6 choice runs is recorded.

Setting [5] is: group A4, ceftriaxone 5 mg/kg/day, p<0.05.

For `CO/N=C(\C(=O)N[C@@H]1C(=O)N2C(C(=O)O)=C(CSc3nc(=O)c(=O)[nH]n3C)CS[C@H]12)c1csc(N)n1` [ceftriaxone], the “percentage of time exploring novel object O4 vs object O1 (recognition ability)” value in the test with PDD rats [1] (group A4, ceftriaxone 5 mg/kg/day, p<0.001) is “can recognize the novel object O4 in the environment”; in the test with PDD rats [1] (group A5, ceftriaxone 10 mg/kg/day, p<0.05) it was “can recognize the novel object O4 in the environment”. For the same compound, the “percentage of the CA1 area occupied by the pyramidal neuron” value in test [2] (group A4, ceftriaxone 5 mg/kg/day) was “recovery of pyramidal neuron density in the CA1 area”; in test [2] (group A5, ceftriaxone 10 mg/kg/day), “recovery of pyramidal neuron density in the CA1 area”. Also, the “density of DAergic neuron in the SNc” value in test [3] (setting [5]) is on record as “recovery of DAergic neuron density in the SNc”; in test [3] (group A5, ceftriaxone 10 mg/kg/day, p<0.01) it was “recovery of DAergic neuron density in the SNc”. For the same compound, the “percentage of correct response in T-maze test (working memory)” value in the test on PDD rats [4] (setting [5]) is listed as “slightly treatment on the cognitive impairment on working memory”; with PDD rats [4] (group A5, ceftriaxone 10 mg/kg/day, p<0.001), “significant treatment on the cognitive impairment on working memory”.
